Measurements taken from patent publication US20200197480A1, “COMBINATION COMPRISING A PARTICULAR POLYMYXIN” (HELPERBY THERAPEUTICS LIMITED, priority 2017, published 2020).

Tests used:
[1] = tested on: NDM-1 Klebsiella pneumoniae subsp. pneumoniae (BAA2472); assay: chequerboard analysis, log phase culture, 24 hours incubation, FICI calculated; type: cell-based
Procedure: • Bacterial strain used: BAA2472 strain of NDM-1 Klebsiella pneumoniae subsp. pneumoniae from ATCC®. • Growth of bacteria: Log phase growth of the bacteria was carried out according to methods known in the art. • Compounds and preparation: • (i) HT0160010 was obtained from a commercial source and dissolved in DMSO to make a stock concentration of 10 mg/ml. • (ii) Colistimethate sodium (CMS) was obtained from a commercial source (e.g. Sigma Aldrich) at a concentration of 10 mg/ml.
(§1) Log phase bacterial culture was incubated with HT0160010 and CMS in combination using the chequerboard method known in the art. The overnight culture was diluted with nutrient broth (Oxoid) to 10^7 CFU/ml and 280 μl of the culture was added to each well to make a final concentration of 300 μl. Incubation of the compounds with the bacterial suspension was carried out for 24 hours. The HT0160010 concentration ranged from 128 to 0 μg/ml and the CMS concentration ranged from 16 to 0 μg/ml.
(§2) The effects of the combination were examined by calculating the fractional inhibitory concentration index (FICI) of each combination, as follows: (MIC of drug A, tested in combination)/(MIC of drug A, tested alone)+(MIC of drug B, tested in combination)/(MIC of drug B, tested alone). The interaction of the combination was defined as showing synergy if the FICI was ≤0.5, no interaction if the FICI was ≥0.5 but ≤4.0 and antagonism if the FICI was ≥4.0.
• Bacterial strain used: BAA2472 strain of NDM-1 Klebsiella pneumoniae subsp. pneumoniae from ATCC®. • Growth of bacteria: Log phase growth of the bacteria was carried out according to methods known in the art.
• (i) HT0160009 was obtained from a commercial source and dissolved in DMSO to make a stock concentration of 10 mg/ml. • (ii) Colistimethate sodium (CMS) was obtained from a commercial source (e.g. Sigma Aldrich) at a concentration of 10 mg/ml.
as §1, with “with HT0160009” for “with HT0160010”, “from 256” for “from 128”
The effects of the combination were examined by calculating the FICI in the same manner as Example 1.

[2] = tested on: NDM-1 Escherichia coli (BAA2469); assay: as above; type: cell-based; parameters: key: FICI; ≤0.5 synergy, 0.5–4.0 no interaction, ≥4.0 antagonism
Procedure: as §1, §2
• Bacterial strain used: BAA2469 strain of NDM-1 E. coli from ATCC®. • Growth of bacteria: Log phase growth of the bacteria was carried out according to methods known in the art.
Compounds and preparation were the same as Example 1. The effects of the combination were also examined by calculating the FICI in the same manner as Example 1.
as §1, with “with HT0160009” for “with HT0160010”, “from 256” for “from 128”
Compounds and preparation were the same as Example 3. The effects of the combination were also examined by calculating the FICI in the same manner as Example 3.

[3] = CMS 0.015625 μg/ml, HT0160010 0

O=C(c1cc(C(F)(F)F)nc2c(C(F)(F)F)cccc12)C1CCCCN1 (stereo not shown) [HT0160009]
chequerboard results ([1]; HT0160009 4 μg/ml, CMS 0): 0.50 | chequerboard results ([1]; HT0160009 8 μg/ml, CMS 0): 0.50 | chequerboard results ([1]; HT0160009 16 μg/ml, CMS 0): 0.49 | chequerboard results ([1]; HT0160009 32 μg/ml, CMS 0): 0.25 | chequerboard results ([1]; HT0160009 64 μg/ml, CMS 0): 0.17 | chequerboard results ([1]; HT0160009 128 μg/ml, CMS 0): 0.14 | chequerboard results ([1]; HT0160009 256 μg/ml, CMS 0): 0.05 | chequerboard results ([2]; HT0160009 4 μg/ml, CMS 0): 0.61 | chequerboard results ([2]; HT0160009 8 μg/ml, CMS 0): 0.54 | chequerboard results ([2]; HT0160009 16 μg/ml, CMS 0): 0.58 | chequerboard results ([2]; HT0160009 32 μg/ml, CMS 0): 0.32 | chequerboard results ([2]; HT0160009 64 μg/ml, CMS 0): 0.22 | chequerboard results ([2]; HT0160009 128 μg/ml, CMS 0): 0.21 | chequerboard results ([2]; HT0160009 256 μg/ml, CMS 0): 0.05

OC(c1ccccn1)c1cc(C(F)(F)F)nc2c(C(F)(F)F)cccc12 (stereo not shown) [HT0160010, (2,8-bis-trifluoromethyl-quinolin-4-yl)-pyridin-2-yl-methanol]
chequerboard results ([1]; HT0160010 4 μg/ml, CMS 0): 0.54 | chequerboard results ([1]; HT0160010 8 μg/ml, CMS 0): 0.57 | chequerboard results ([1]; HT0160010 16 μg/ml, CMS 0): 0.56 | chequerboard results ([1]; HT0160010 32 μg/ml, CMS 0): 0.56 | chequerboard results ([1]; HT0160010 64 μg/ml, CMS 0): 0.56 | chequerboard results ([1]; HT0160010 128 μg/ml, CMS 0): 0.57 | chequerboard results ([2]; HT0160010 4 μg/ml, CMS 0): 0.62 | chequerboard results ([2]; HT0160010 8 μg/ml, CMS 0): 0.58 | chequerboard results ([2]; HT0160010 16 μg/ml, CMS 0): 0.61 | chequerboard results ([2]; HT0160010 32 μg/ml, CMS 0): 0.62 | chequerboard results ([2]; HT0160010 64 μg/ml, CMS 0): 0.64 | chequerboard results ([2]; HT0160010 128 μg/ml, CMS 0): 0.61

Colistimethate sodium [CMS]
chequerboard results [1, 3]: 0.54 | chequerboard results ([1]; CMS 0.016 μg/ml, HT0160009 0): 0.52 | chequerboard results ([1]; CMS 0.031 μg/ml, HT0160009 0): 0.52 | chequerboard results ([1]; CMS 0.03125 μg/ml, HT0160010 0): 0.53 | chequerboard results ([1]; CMS 0.0625 μg/ml, HT0160010 0): 0.54 | chequerboard results ([1]; CMS 0.063 μg/ml, HT0160009 0): 0.53 | chequerboard results ([1]; CMS 0.125 μg/ml, HT0160009 0): 0.53 | chequerboard results ([1]; CMS 0.125 μg/ml, HT0160010 0): 0.52 | chequerboard results ([1]; CMS 0.25 μg/ml, HT0160009 0): 0.53 | chequerboard results ([1]; CMS 0.25 μg/ml, HT0160010 0): 0.51 | chequerboard results ([1]; CMS 0.5 μg/ml, HT0160009 0): 0.53 | chequerboard results ([1]; CMS 0.5 μg/ml, HT0160010 0): 0.52 | chequerboard results ([1]; CMS 1 μg/ml, HT0160009 0): 0.50 | chequerboard results ([1]; CMS 1 μg/ml, HT0160010 0): 0.41 | chequerboard results ([1]; CMS 2 μg/ml, HT0160009 0): 0.04 | chequerboard results ([1]; CMS 2 μg/ml, HT0160010 0): 0.05 | chequerboard results ([1]; CMS 4 μg/ml, HT0160009 0): 0.04 | chequerboard results ([1]; CMS 4 μg/ml, HT0160010 0): 0.04 | chequerboard results ([1]; CMS 8 μg/ml, HT0160009 0): 0.04 | chequerboard results ([1]; CMS 8 μg/ml, HT0160010 0): 0.05 | chequerboard results ([1]; CMS 16 μg/ml, HT0160009 0): 0.04 | chequerboard results ([1]; CMS 16 μg/ml, HT0160010 0): 0.05 | chequerboard results [2, 3]: 0.59 | chequerboard results ([2]; CMS 0.016 μg/ml, HT0160009 0): 0.62 | chequerboard results ([2]; CMS 0.031 μg/ml, HT0160009 0): 0.64 | chequerboard results ([2]; CMS 0.03125 μg/ml, HT0160010 0): 0.68 | chequerboard results ([2]; CMS 0.0625 μg/ml, HT0160010 0): 0.61 | chequerboard results ([2]; CMS 0.063 μg/ml, HT0160009 0): 0.66 | chequerboard results ([2]; CMS 0.125 μg/ml, HT0160009 0): 0.63 | chequerboard results ([2]; CMS 0.125 μg/ml, HT0160010 0): 0.59 | chequerboard results ([2]; CMS 0.25 μg/ml, HT0160009 0): 0.62 | chequerboard results ([2]; CMS 0.25 μg/ml, HT0160010 0): 0.61 | chequerboard results ([2]; CMS 0.5 μg/ml, HT0160009 0): 0.62 | chequerboard results ([2]; CMS 0.5 μg/ml, HT0160010 0): 0.59 | chequerboard results ([2]; CMS 1 μg/ml, HT0160009 0): 0.56 | chequerboard results ([2]; CMS 1 μg/ml, HT0160010 0): 0.55 | chequerboard results ([2]; CMS 2 μg/ml, HT0160009 0): 0.55 | chequerboard results ([2]; CMS 2 μg/ml, HT0160010 0): 0.54 | chequerboard results ([2]; CMS 4 μg/ml, HT0160009 0): 0.05 | chequerboard results ([2]; CMS 4 μg/ml, HT0160010 0): 0.18 | chequerboard results ([2]; CMS 8 μg/ml, HT0160009 0): 0.05 | chequerboard results ([2]; CMS 8 μg/ml, HT0160010 0): 0.05 | chequerboard results ([2]; CMS 16 μg/ml, HT0160009 0): 0.05 | chequerboard results ([2]; CMS 16 μg/ml, HT0160010 0): 0.05
